Test results as given in patent US11528912B2, “Bacillus methylotrophicus strain DR-08 producing natural volatile compound and having antibacterial activity, and use thereof” (GLOBAL AGRO CO., LTD., priority 2016, dated 2022).
Where a name gives a salt, the structure may show the parent alone.

Legend:
Assay type in all cases: cell-based
[1] = test system: Xanthomonas axonopodis pv. citri; assay: 96-well microplate bioassay, MIC; details: read-out: Minimum inhibitory concentration (MIC)
[2] = test system: Xanthomonas oryzae pv. oryzae; assay: microbe, parasite or virus in culture; details: read-out: Minimum inhibitory concentration (MIC)
[3] = test system: Pectobacterium chrysanthemi; assay: 96-well microplate bioassay, MIC; parameters: key: —: Not active
Experimental: (§1) The butanol extract produced as in Example 3 was dissolved in methanol at a level of 5 mg/mL, and antibacterial activity thereof against various plant pathogens was examined.
(§2) Then, dilution with sterilized water was performed to reach 10^6 CFU/ml, and inoculation into a 96-well plate was performed.
(§3) For the butanol extract of the Bacillus sp. strain DR-08, the butanol extract of the strain DR-08 and streptomycin sulfate as a control agent were made to have the highest concentrations of 500·μg/mL and 100 μg/mL, respectively, in a TSB medium into which 14 various phytopathogenic bacteria including Gram-negative and Gram-positive bacteria had been inoculated. Then, starting from the next well, the concentrations were decreased by 2-fold using an octapipette. The butanol extract of the strain DR-08 was used by being sequentially diluted by 2-fold from 500 μg/mL at the highest down to 15.6 μg/mL, and streptomycin sulfate as a control agent was used by being sequentially diluted by 2-fold from 100 μg/mL at the highest down to 3.1 μg/mL. Standing culture was performed at optimal growth conditions, and then growth of the phytopathogenic bacteria was measured at an absorbance of 595 nm with a microplate reader. Then, a minimum growth inhibitory concentration (MIC) value was determined.

[4] = test system: Acidovorax avenae subsp. cattleyae; assay: 96-well microplate bioassay, MIC; parameters: key: —: Not active
Experimental: as §1, §2, §3

[5] = test system: Xanthomonas euvesicatoria; assay: microbe, parasite or virus in culture; details: read-out: Minimum inhibitory concentration (MIC)
Burkholderia glumae = assay: microbe, parasite or virus in culture; details: read-out: Minimum inhibitory concentration (MIC)
[6] = test system: Xanthomonas arboricola pv. pruni; assay: microbe, parasite or virus in culture; details: 48 h, read-out: Clear zone
[7] = test system: Pectobacterium carotovora subsp. carotovora; assay: 96-well microplate bioassay, MIC; details: read-out: Minimum inhibitory concentration (MIC)
Experimental: as §1, §2, §3

[8] = test system: Xanthomonas arboricola pv. pruni; assay: 96-well microplate bioassay, MIC; details: read-out: Minimum inhibitory concentration (MIC)
Experimental: as §1, §2, §3

Acidovorax konjaci = assay: 96-well microplate bioassay, MIC; details: Paracidovorax konjaci; read-out: Minimum inhibitory concentration (MIC)
Experimental: as §1, §2, §3

[9] = test system: Pseudomonas syringae pv. lachrymans; assay: 96-well microplate bioassay, MIC; details: read-out: Minimum inhibitory concentration (MIC)
Experimental: as §1, §2, §3

[10] = test system: Pseudomonas syringae pv. actinidiae; assay: 96-well microplate bioassay, MIC; details: read-out: Minimum inhibitory concentration (MIC)
Experimental: as §1, §2, §3

[11] = test system: Agrobacterium tumefaciens; assay: 96-well microplate bioassay, MIC; details: read-out: Minimum inhibitory concentration (MIC)
Experimental: as §1, §2, §3

Ralstonia solanacearum = assay: microbe, parasite or virus in culture; details: read-out: Minimum inhibitory concentration (MIC)
[12] = test system: Clavibacter michiganensis subsp. michiganensis; assay: 96-well microplate bioassay, MIC; details: read-out: Minimum inhibitory concentration (MIC)

Question: With `[H]/N=C(/N)N[C@H]1[C@H](O)[C@@H](O)[C@H](O[C@@H]2O[C@@H](C)[C@](O)(C=O)[C@H]2O[C@@H]2O[C@@H](CO)[C@H](O)[C@@H](O)[C@@H]2NC)[C@@H](N/C(N)=N\[H])[C@@H]1O` [Streptomycin sulfate, streptomycin sulfate] as the compound, how does the MIC [1] read?
Answer: Its MIC is 6.25 µg/mL.

Question: What about the MIC [2] of the same compound?
Answer: The MIC was 3.12 µg/mL.

Question: And the “Minimum inhibitory concentration (MIC)” value [3]?
Answer: The value was “—”.

Question: And the “Minimum inhibitory concentration (MIC)” value [4]?
Answer: Its value is “—”.

Question: And the MIC [5]?
Answer: Its MIC is 12.5 µg/mL.

Question: And the MIC (Burkholderia glumae)?
Answer: The MIC was 12.5 µg/mL.

Question: What about the zone of inhibition at 200 ppm [6] of the same compound?
Answer: The zone of inhibition at 200 ppm was 4 mm.

Question: What about the MIC [7] of the same compound?
Answer: The MIC was 12.5 µg/mL.

Question: What about the MIC [8] of the same compound?
Answer: Its MIC is 12.5 µg/mL.

Question: And the MIC (Acidovorax konjaci)?
Answer: The MIC was 6.25 µg/mL.

Question: And the MIC [9]?
Answer: Its MIC is 50 µg/mL.

Question: And the MIC [10]?
Answer: Its MIC is 12.5 µg/mL.

Question: And the MIC [11]?
Answer: Its MIC is 100 µg/mL.

Question: What about the MIC (Ralstonia solanacearum) of the same compound?
Answer: Its MIC is 3.12 µg/mL.

Question: What about the MIC [12] of the same compound?
Answer: The MIC was 25 µg/mL.
